Source: PubChem BioAssay (NCI)
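48-hour exposure; five concentrations; linearly interpolated endpoints. GI50 = concentration required for 50% inhibition of growth. The concentration for full growth arrest is given as TGI.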

Legend:
Experiment in all cases: NCI-60 cell line screen, 48 h
RPMI-8226 leukemia = test system: RPMI-8226 leukemia
DMS 114 small cell lung = test system: DMS 114 small cell lung
LXFL 529 NSCLC = test system: LXFL 529 NSCLC
NCI-H226 lung = test system: NCI-H226 lung
786-0 renal = test system: 786-0 renal
SK-MEL-5 melanoma = test system: SK-MEL-5 melanoma
CCRF-CEM leukemia = test system: CCRF-CEM leukemia
NCI-H460 lung = test system: NCI-H460 lung
HCT-116 colon = test system: HCT-116 colon
T-47D breast = test system: T-47D breast

Structure (SMILES) | TGI (RPMI-8226 leukemia) [µM] | TGI (DMS 114 small cell lung) [µM] | TGI (LXFL 529 NSCLC) [µM] | TGI (NCI-H226 lung) [µM] | TGI (786-0 renal) [µM] | TGI (SK-MEL-5 melanoma) [µM] | TGI (CCRF-CEM leukemia) [µM] | TGI (NCI-H460 lung) [µM] | TGI (HCT-116 colon) [µM] | GI50 (T-47D breast) [µM] | TGI (T-47D breast) [µM] | GI50 (RPMI-8226 leukemia) [µM] | GI50 (NCI-H226 lung) [µM] | GI50 (786-0 renal) [µM] | GI50 (SK-MEL-5 melanoma) [µM] | GI50 (CCRF-CEM leukemia) [µM] | GI50 (NCI-H460 lung) [µM] | GI50 (HCT-116 colon) [µM]
O=C(CCn1[nH]c(=O)c(Cl)c(Cl)c1=O)NNC(=O)C[n+]1ccccc1 | > 100 | > 100 | > 100 | > 100 | > 100 | > 100 | > 100 | > 100 |  |  |  |  |  |  |  |  |  | 
CCCCCCCCCC(=O)OCC1OC(n2cc(F)c(=O)[nH]c2=O)C(NC(=O)OCc2ccccc2)C(OC(=O)CCCCCCCCC)C1O (configuration not stated) | 65.2 | 49.1 | > 100 |  | 36.1 | 41.5 | > 100 |  | 28.1 |  |  |  |  |  |  |  |  | 
C=C1CC2CC(O)CC(C1)C2 (configuration not stated) | > 100 | > 100 | > 100 | > 100 | > 100 | > 100 |  | > 100 | > 100 |  |  |  |  |  |  |  |  | 
CSc1snc2sc3c(Cl)nnnc3c12 | 56.2 | 29 | 4.85 |  | 29.7 | 30.7 | 11 | 32.8 | 30.9 |  |  |  |  |  |  |  |  | 
O=C(CC(=O)c1cccc2ccccc12)C(=O)NC1C2CC3CC(C2)CC1C3 (configuration not stated) | > 100 | > 100 | > 100 | > 100 | > 100 | > 100 | > 100 | > 100 | > 100 |  |  |  |  |  |  |  |  | 
Nc1n[n+](-c2ccccc2)no1 | > 100 | 89.8 | > 100 | > 100 | > 100 | > 100 | > 100 | > 100 | > 100 |  |  |  |  |  |  |  |  | 
CC(=O)O[C@@]1(C)[C@@H](C)C(=O)O[C@@H]2CCN3CC=C(COC(=O)[C@]1(C)O)[C@H]23 | > 100 | > 100 | > 100 | > 100 | > 100 | > 100 | > 100 | > 100 | > 100 |  |  |  |  |  |  |  |  | 
COc1ccc2oc(C(=O)O)c3c2c1CCC3CCC(=O)O (configuration not stated) | > 100 | > 100 | > 100 |  | > 100 | > 100 | > 100 | > 100 | > 100 |  |  |  |  |  |  |  |  | 
CCOC(=O)c1cnc2sc3ccc4ccccc4c3n2c1=O | > 100 | > 100 | > 100 | > 100 | > 100 | > 100 | 82.6 | > 100 | > 100 |  |  |  |  |  |  |  |  | 
O=C(N/N=C1\C(=O)N(c2nccs2)C(=O)C(=O)C1c1nc2ccccc2s1)c1ccccc1O (configuration not stated) | > 100 | > 100 | > 100 | > 100 | > 100 | > 100 | > 100 | > 100 | > 100 |  |  |  |  |  |  |  |  | 
Cc1[nH]c(=O)[nH]c1C(=O)c1ccc(-n2ccnc2)cc1 | > 100 | > 100 | > 100 | > 100 | > 100 | > 100 |  | > 100 | > 100 |  |  |  |  |  |  |  |  | 
N#CC1(C#N)C2C=CC(c3coc4cccc2c34)C1(C#N)C#N (configuration not stated) | 19.9 | 9.98 | 21.2 | 34.3 | 34.8 | 28.8 | 6.71 | 37.4 | 6.08 |  |  |  |  |  |  |  |  | 
CCc1cc(CCC(=O)Nc2ccccc2[N+](=O)[O-])[nH]c(=S)n1 |  | > 100 | > 100 | > 100 | > 100 |  | > 100 | > 100 | > 100 |  |  |  |  |  |  |  |  | 
Cn1c(N)nc(=O)c2c1N(C1OC(CO)C(O)C1O)CN2Cc1ccccc1 (configuration not stated) | > 100 | > 100 | > 100 | > 100 | > 100 | > 100 |  | > 100 | > 100 |  |  |  |  |  |  |  |  | 
C=C1C(OC(=O)/C=C/c2ccccc2)CC(OC(C)=O)C2(C)C1CC1CC(OC(C)=O)C(C)=C(C(OC(C)=O)C2OC(C)=O)C1(C)C (configuration not stated) | > 100 | > 100 | > 100 | > 100 | > 100 | > 100 | > 100 | > 100 | > 100 |  |  |  |  |  |  |  |  | 
COc1ccc(/C=C2\CCC(CCN(C)C)(C3=CCCC3)C2=O)cc1Br (configuration not stated) | 5.5 | 14.9 | 15.8 | 31.4 | 14.3 | 3.15 | 5.74 | 25.6 | 17.1 |  |  |  |  |  |  |  |  | 
CCOC(=O)c1cc(-c2ccccc2)[nH]c1N/N=C/c1ccc(Cl)cc1 | > 100 |  |  | > 100 | > 100 | > 100 | > 100 | > 100 | > 100 | 45.5 | > 100 | 29.8 | > 100 | 50.4 | 28.4 | 5.86 | 58.1 | 47.6
CCOC(=O)c1cnc2c(ccc3ncccc32)c1NCCCN(CC)CC | > 100 |  | > 100 | > 100 | > 100 | > 100 | > 100 | > 100 |  |  |  |  |  |  |  |  |  | 
